# Reference: patent US9750727B2 (priority 2010, dated 2017)
# Read-outs that look alike come from different tables or passages of the source.
# Key:
# M. bovis bovinus 8 [1] = type: in vivo, mice
# M. bovis bovinus 8 [2] = type: in vivo, mice; remark: listed apart in the source
# M. bovis bovinus 8 [3] = type: in vivo, mice; conditions: combination of the new treatment with the TB drug
# [4] = in vivo; cited from earlier work
# M. bovis bovinus 8 [5] = type: in vivo, rabbits; conditions: for Body weight ITE (%): 15 mg/kg
# M. tuberculosis Erdman = assay: Double serial dilution, growth of drug-sensitive test strain; type: cell-based; set-up: key to Degree of mycobacterial growth: primary inhibition of mycobacterial growth (++); conditions: for Degree of mycobacterial growth: 10^6 cells/ml
# [6] = Allergenic, immunotoxic and mutagenic properties
# M. tuberculosis H37Rv = assay: Double serial dilution, growth of drug-sensitive test strain; type: cell-based; set-up: key to Degree of mycobacterial growth: primary inhibition of mycobacterial growth (++)
# [7] = test system: Mycobacteria tuberculosis; assay: Tuberculostatic activity compared with the prototype drug; conditions: in comparison with the prototype drug
# [8] = Embryo toxicity, teratogenicity and reproductive function; type: in vivo, animals
# [9] = test system: gram-positive and gram-negative microorganisms; type: cell-based
# M. bovis bovinus 8 [10] = test system: M. bovis bovinus 8; set-up: species or system mice; conditions: mouse, in vivo
# [11] = test system: M. tuberculosis “Academia”; assay: Double serial dilution, growth of drug-sensitive test strain; type: cell-based; set-up: key to Degree of mycobacterial growth: primary inhibition of mycobacterial growth (++)
# Stability during storage = type: physicochemical
# M. bovis bovinus 8 [12] = type: cell-based
# General toxicity = type: in vivo
# [13] = TB drug combined with the new treatment (20 mg/kg, per os) vs TB drug monotherapy, mice, 42 days
# [14] = TB drug combined with the new treatment (20 mg/kg, per os) vs TB drug monotherapy, mice, 42 days of treatment
# [15] = new treatment in combination with the TB drug, compared to monotherapy with the new treatment alone
# [16] = rabbits, 15 mg/kg per os, vs infection control
# [17] = 3.125 μg/ml in medium, 10^6 cells/ml
compound,measurement,setting,value
"NCC[C@H](O)C(=O)N[C@@H]1C[C@H](N)[C@@H](O[C@H]2O[C@H](CN)[C@@H](O)[C@H](O)[C@H]2O)[C@H](O)[C@H]1O[C@H]1O[C@H](CO)[C@@H](O)[C@H](N)[C@H]1O [Amycacin, amycacin]",Scored sum of area: Breathing lung tissue,"M. bovis bovinus 8 [1]; mouse, in vivo",17.7
same,Scored sum of area: Dense lymphocytic infiltrate,"M. bovis bovinus 8 [1]; mouse, in vivo",3.12
same,Scored sum of area: Desquamative pneumonia,"M. bovis bovinus 8 [1]; mouse, in vivo",2.94
same,Scored sum of area: Polymorpho cellular infiltrate,"M. bovis bovinus 8 [1]; mouse, in vivo",0
same,Scored sum of area: Total lung tissue,"M. bovis bovinus 8 [1]; mouse, in vivo",23.76
same,improvement of the indices of lung damage (morphological),"M. bovis bovinus 8 [1]; mouse, in vivo",2.56%
same,decrease in the coefficient of liver weight,"M. bovis bovinus 8 [2]; mouse, in vivo",34.6%
same,decrease in the index of lung damage,"M. bovis bovinus 8 [2]; mouse, in vivo",1.8%
same,"effect of combination on therapeutic effectiveness, in words","M. bovis bovinus 8 [2]; mouse, in vivo",increased the therapeutic effectiveness
same,increase in therapeutic effectiveness (average of indices of organ damage),"M. bovis bovinus 8 [2]; mouse, in vivo",11.34%
"CC[C@@H](CO)NCCN[C@@H](CC)CO [Ethambutol, ethambutol]","therapeutic effectiveness of the combination, in words",M. bovis bovinus 8 [3],weak therapeutic effectiveness
same,Scored sum of area: Breathing lung tissue,"M. bovis bovinus 8 [1]; mice, 42 days of treatment",9.78
same,Scored sum of area: Dense lymphocytic infiltrate,"M. bovis bovinus 8 [1]; mice, 42 days of treatment",6.8
same,Scored sum of area: Desquamative pneumonia,"M. bovis bovinus 8 [1]; mice, 42 days of treatment",6.93
same,Scored sum of area: Polymorpho cellular infiltrate,"M. bovis bovinus 8 [1]; mice, 42 days of treatment",0.27
same,Scored sum of area: Total lung tissue,"M. bovis bovinus 8 [1]; mice, 42 days of treatment",23.78
same,decrease in CFU levels in the spleen,M. bovis bovinus 8 [2]; [13],33.3%
same,decrease in coefficient of spleen weight,M. bovis bovinus 8 [2]; [13],22.1%
same,decrease in the coefficient of liver weight,M. bovis bovinus 8 [2]; [13],8.9%
same,increase in the index of lung damage,M. bovis bovinus 8 [2]; [13],4.0%
same,increase in the index of lung weight,M. bovis bovinus 8 [2]; [13],3.1%
same,increase in therapeutic effectiveness (average of indices of organ damage),M. bovis bovinus 8 [2]; [14],11.44%
same,"effect of combination on therapeutic effectiveness, in words",M. bovis bovinus 8 [2]; [15],increased the therapeutic effectiveness
"NNC(=O)c1ccncc1 [Isoniazid, isonicotinic acid hydrazide]",LD50,[4],150 mg/kg
same,Scored sum of area: Breathing lung tissue,"M. bovis bovinus 8 [1]; mice, 42 days of treatment",17.5
same,Scored sum of area: Dense lymphocytic infiltrate,"M. bovis bovinus 8 [1]; mice, 42 days of treatment",1.59
same,Scored sum of area: Desquamative pneumonia,"M. bovis bovinus 8 [1]; mice, 42 days of treatment",3.52
same,Scored sum of area: Polymorpho cellular infiltrate,"M. bovis bovinus 8 [1]; mice, 42 days of treatment",0.86
same,Scored sum of area: Total lung tissue,"M. bovis bovinus 8 [1]; mice, 42 days of treatment",23.47
same,Body weight % of initial,"M. bovis bovinus 8 [5]; rabbits, 15 mg/kg per os",−6.99%
same,Lethality % of initial number,"M. bovis bovinus 8 [5]; rabbits, 15 mg/kg per os",0%
same,Lethality ITE (%),M. bovis bovinus 8 [5]; [16],+100.0%
same,Body weight ITE (%),M. bovis bovinus 8 [5]; [16],+74.67%
same,Body weight ITE (%),"M. bovis bovinus 8 [5]; rabbits, 15 mg/kg per os, vs infection control, listed as isoniazid",74.67%
same,decrease in CFU levels in the spleen,M. bovis bovinus 8 [2]; [13],25%
same,decrease in the coefficient of liver weight,M. bovis bovinus 8 [2]; [13],3.6%
same,increase in therapeutic effectiveness (average of indices of organ damage),M. bovis bovinus 8 [2]; [14],13.9%
same,"effect of combination on therapeutic effectiveness, in words",M. bovis bovinus 8 [2]; [15],increased the therapeutic effectiveness
CC1COc2c(N3CCN(C)CC3)c(F)cc3c(=O)c(C(=O)O)cn1c23 (centres unmarked) [Ofloxacin],Scored sum of area: Breathing lung tissue,"M. bovis bovinus 8 [1]; mice, 42 days of treatment",7.32
same,Scored sum of area: Dense lymphocytic infiltrate,"M. bovis bovinus 8 [1]; mice, 42 days of treatment",6.32
same,Scored sum of area: Desquamative pneumonia,"M. bovis bovinus 8 [1]; mice, 42 days of treatment",10.49
same,Scored sum of area: Polymorpho cellular infiltrate,"M. bovis bovinus 8 [1]; mice, 42 days of treatment",0.04
same,Scored sum of area: Total lung tissue,"M. bovis bovinus 8 [1]; mice, 42 days of treatment",24.17
same,"decrease in indices (of therapeutic effectiveness), range over indices",M. bovis bovinus 8 [2]; [13],4.65% to 11.9
same,increase in the index of lung damage,M. bovis bovinus 8 [2]; [13],2.6%
same,decrease in therapeutic effectiveness,M. bovis bovinus 8 [2]; [14],6.2%
"CO[C@H]1/C=C/O[C@@]2(C)Oc3c(C)c(O)c4c(c3C2=O)C2=NC3(CCN(CC(C)C)CC3)NC2=C(NC(=O)/C(C)=C\C=C\[C@H](C)[C@H](O)[C@@H](C)[C@@H](O)[C@@H](C)[C@H](OC(C)=O)[C@@H]1C)C4=O [Rifabutin, rifabutin]",Scored sum of area: Breathing lung tissue,"M. bovis bovinus 8 [1]; mice, 42 days of treatment",23.27
same,Scored sum of area: Dense lymphocytic infiltrate,"M. bovis bovinus 8 [1]; mice, 42 days of treatment",0.53
same,Scored sum of area: Desquamative pneumonia,"M. bovis bovinus 8 [1]; mice, 42 days of treatment",0.16
same,Scored sum of area: Polymorpho cellular infiltrate,"M. bovis bovinus 8 [1]; mice, 42 days of treatment",0
same,Scored sum of area: Total lung tissue,"M. bovis bovinus 8 [1]; mice, 42 days of treatment",23.96
same,decrease in coefficient of lung weight,M. bovis bovinus 8 [2]; [13],12.4%
same,decrease in coefficient of spleen weight,M. bovis bovinus 8 [2]; [13],20.6%
same,increase in the coefficient of liver weight,M. bovis bovinus 8 [2]; [13],0.4%
same,increase in the index of lung damage,M. bovis bovinus 8 [2]; [13],7.4%
same,increase in therapeutic effectiveness (average of indices of organ damage),M. bovis bovinus 8 [2]; [14],7.68%
same,"effect of combination on therapeutic effectiveness, in words",M. bovis bovinus 8 [2]; [15],increased the therapeutic effectiveness
"CO[C@H]1/C=C/O[C@@]2(C)Oc3c(C)c(O)c4c(O)c(c(/C=N/N5CCN(C)CC5)c(O)c4c3C2=O)NC(=O)/C(C)=C\C=C\[C@H](C)[C@H](O)[C@@H](C)[C@@H](O)[C@@H](C)[C@H](OC(C)=O)[C@@H]1C [Rifampicin, rifampicin]",Scored sum of area: Breathing lung tissue,"M. bovis bovinus 8 [1]; mice, 42 days of treatment",19.65
same,Scored sum of area: Desquamative pneumonia,"M. bovis bovinus 8 [1]; mice, 42 days of treatment",1.94
same,Scored sum of area: Polymorpho cellular infiltrate,"M. bovis bovinus 8 [1]; mice, 42 days of treatment",0
same,Scored sum of area: Total lung tissue,"M. bovis bovinus 8 [1]; mice, 42 days of treatment",23.96
same,decrease in coefficient of lung weight,M. bovis bovinus 8 [2]; [13],18.2%
same,decrease in coefficient of spleen weight,M. bovis bovinus 8 [2]; [13],34.6%
same,decrease in the coefficient of liver weight,M. bovis bovinus 8 [2]; [13],1.6%
same,increase in CFU levels,M. bovis bovinus 8 [2]; [13],6.19%
same,increase in therapeutic effectiveness (average of indices of organ damage),M. bovis bovinus 8 [2]; [14],9.66%
NC(=S)NN=Cc1ccncc1.[O-][Cl+3]([O-])([O-])O [new treatment],Degree of mycobacterial growth,M. tuberculosis Erdman; 0.19 μg/ml in medium,++
same,Degree of mycobacterial growth,M. tuberculosis Erdman; 0.39 μg/ml in medium,++
same,Degree of mycobacterial growth,M. tuberculosis Erdman; 0.78 μg/ml in medium,++
same,MIC,M. tuberculosis Erdman; M. tuberculosis Erdman,3.125 µg/mL
same,allergenic properties,[6],no
same,immunotoxic properties,[6],no
same,mutagenic properties,[6],no
same,Degree of mycobacterial growth,M. tuberculosis H37Rv; [17],++
same,MIC,M. tuberculosis H37Rv; M. tuberculosis H37RV,6.25 µg/mL
same,tuberculostatic activity relative to the prototype drug (higher),[7],200 times
same,"dose with teratogenic effect (non life-threatening skeletal malformations, delay in ossification, edema, subcutaneous hemorrhage)","[8]; administered during organogenesis, five times the therapeutic dose",100 mg/kg
same,effect on the reproductive function and offspring development in animals,[8]; continued administration,no effect
same,alterations in placenta development and sex formation,[8]; in vivo,no alterations
same,embryo toxicity,[8]; mainly if administered during organogenesis,moderate embryo toxicity
same,effect on the growth of gram-positive and gram-negative microorganisms,[9],did not affect the growth
same,Body weight % of initial,M. bovis bovinus 8 [10]; 10 mg/kg,81.9%
same,Lethality %,M. bovis bovinus 8 [10]; 10 mg/kg,62.5%
same,Body weight % of initial,M. bovis bovinus 8 [10]; 20 mg/kg,94.5%
same,Lethality %,M. bovis bovinus 8 [10]; 20 mg/kg,25.0%
same,Body weight % of initial,M. bovis bovinus 8 [10]; 30 mg/kg,92.6%
same,Lethality %,M. bovis bovinus 8 [10]; 30 mg/kg,2.4%
same,Degree of mycobacterial growth,[11]; [17],++
same,MIC,[11]; M. tuberculosis “Academia”,6.25 µg/mL
same,"time for which appearance, physical characteristics and biological properties are stable",Stability during storage,3 years
same,complete inhibition (MIC),M. bovis bovinus 8 [12],1.56 µg/mL
same,concentration of primary inhibition of mycobacterial growth (++),M. bovis bovinus 8 [12],0.19 µg/mL
same,toxicity relative to the prototype drug (lower),General toxicity; in comparison with the prototype drug,2.4 times
same,damage to vital organs and systems,General toxicity; in vivo,neither a significant structural and functional damage to vital organs and systems
same,"toxicity, in words",General toxicity; in vivo,low toxic agent
same,Body weight % of initial,"M. bovis bovinus 8 [5]; rabbit, in vivo, 20 mg/kg",−7.13%
same,Lethality % of initial number,"M. bovis bovinus 8 [5]; rabbit, in vivo, 20 mg/kg",0%
same,Lethality ITE (%),"M. bovis bovinus 8 [5]; rabbit, in vivo, 20 mg/kg",+100.0%
